The source made the active and inactive calls. The rule behind the calls is not given here.
Assays:
MDA-MB-231 = experiment: Antiproliferative activity against human MDA-MB-231 cells assessed as cell growth inhibition after 72 hrs by sulforhodamine B assay; type: functional, cell-based; details: MDA-MB-231, 72 h
MCF7 [1] = experiment: Antiproliferative activity against human MCF7 cells assessed as cell growth inhibition after 72 hrs by sulforhodamine B assay; type: functional, cell-based; details: MCF7, 72 h
[2] = Antiproliferative activity against human KB-VIN cells assessed as cell growth inhibition after 72 hrs by sulforhodamine B assay; type: functional, cell-based; details: KBVIN
A549 = experiment: Antiproliferative activity against human A549 cells assessed as cell growth inhibition after 72 hrs by sulforhodamine B assay; type: functional, cell-based; details: A549, 72 h
KB = experiment: Antiproliferative activity against human KB cells assessed as cell growth inhibition after 72 hrs by sulforhodamine B assay; type: functional, cell-based
MCF7 [3] = experiment: Modulation of DNA replication associated gene expression in human MCF7 cells at 40 uM after 24 hrs by cDNA microarray analysis; type: functional, cell-based
[4] = molecular target: T1, DNA topoisomerase 1 (Homo sapiens) (UniProt P11387); experiment: Inhibition of recombinant human topoisomerase 1 assessed as decrease in relaxation/nicking of supercoiled DNA using supercoiled DNA as substrate at 10 uM after 1 hr by ethidium bromide staining based agarose gel electrophoresis analysis
T1 sequence (whole entry): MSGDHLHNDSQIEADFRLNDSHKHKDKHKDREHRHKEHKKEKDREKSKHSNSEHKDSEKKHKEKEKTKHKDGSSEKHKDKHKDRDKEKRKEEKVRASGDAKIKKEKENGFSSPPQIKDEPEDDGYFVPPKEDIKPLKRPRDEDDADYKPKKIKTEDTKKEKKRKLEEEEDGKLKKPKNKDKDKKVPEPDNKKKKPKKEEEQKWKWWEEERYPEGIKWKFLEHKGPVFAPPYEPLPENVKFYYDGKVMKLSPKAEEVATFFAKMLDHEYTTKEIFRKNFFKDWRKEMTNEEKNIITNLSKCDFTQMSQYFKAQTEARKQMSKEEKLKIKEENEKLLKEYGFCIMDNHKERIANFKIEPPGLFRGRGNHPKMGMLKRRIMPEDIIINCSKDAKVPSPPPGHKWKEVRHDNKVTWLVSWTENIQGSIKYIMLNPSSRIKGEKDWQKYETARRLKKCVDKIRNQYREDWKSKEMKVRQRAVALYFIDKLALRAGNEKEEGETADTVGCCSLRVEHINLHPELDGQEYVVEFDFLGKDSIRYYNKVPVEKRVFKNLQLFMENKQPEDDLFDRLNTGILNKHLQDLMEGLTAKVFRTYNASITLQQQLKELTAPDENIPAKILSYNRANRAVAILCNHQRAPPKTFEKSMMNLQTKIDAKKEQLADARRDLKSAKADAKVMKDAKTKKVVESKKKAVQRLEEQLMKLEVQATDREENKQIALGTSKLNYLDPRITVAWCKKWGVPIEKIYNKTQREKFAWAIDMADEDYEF

MCF7 [5] = experiment: Induction of apoptosis in human MCF7 cells incubated for 24 to 72 hrs by Annexin V-FITC/propidium iodide staining-based flow cytometric analysis; type: functional, cell-based; details: dose microM 20-40, time hrs 24-72
[6] = molecular target: T1, DNA topoisomerase 1 (Homo sapiens); experiment: Inhibition of recombinant human topoisomerase 1 assessed as decrease in relaxation/nicking of supercoiled DNA using supercoiled DNA as substrate after 1 hr by ethidium bromide staining based agarose gel electrophoresis analysis; details: dose microM 1-30, time 1.0 hrs
MCF-10A = experiment: Cytotoxicity against human MCF-10A cells assessed as cell viability at 10 uM after 72 hrs by MTT assay; type: cell-based
[7] = molecular target: DNA topoisomerase 2-alpha (Homo sapiens) (UniProt P11388); experiment: Inhibition of topoisomerase-2alpha in human MCF7 cells nuclear extract assessed as decrease in relaxation/nicking of kinetoplast DNA using kDNA as substrate at 40 uM after 15 mins by ethidium bromide staining based agarose gel electrophoresis analysis; type: subcellular; details: Nucleus
Sequence of DNA topoisomerase 2-alpha (Homo sapiens) (P11388 whole entry): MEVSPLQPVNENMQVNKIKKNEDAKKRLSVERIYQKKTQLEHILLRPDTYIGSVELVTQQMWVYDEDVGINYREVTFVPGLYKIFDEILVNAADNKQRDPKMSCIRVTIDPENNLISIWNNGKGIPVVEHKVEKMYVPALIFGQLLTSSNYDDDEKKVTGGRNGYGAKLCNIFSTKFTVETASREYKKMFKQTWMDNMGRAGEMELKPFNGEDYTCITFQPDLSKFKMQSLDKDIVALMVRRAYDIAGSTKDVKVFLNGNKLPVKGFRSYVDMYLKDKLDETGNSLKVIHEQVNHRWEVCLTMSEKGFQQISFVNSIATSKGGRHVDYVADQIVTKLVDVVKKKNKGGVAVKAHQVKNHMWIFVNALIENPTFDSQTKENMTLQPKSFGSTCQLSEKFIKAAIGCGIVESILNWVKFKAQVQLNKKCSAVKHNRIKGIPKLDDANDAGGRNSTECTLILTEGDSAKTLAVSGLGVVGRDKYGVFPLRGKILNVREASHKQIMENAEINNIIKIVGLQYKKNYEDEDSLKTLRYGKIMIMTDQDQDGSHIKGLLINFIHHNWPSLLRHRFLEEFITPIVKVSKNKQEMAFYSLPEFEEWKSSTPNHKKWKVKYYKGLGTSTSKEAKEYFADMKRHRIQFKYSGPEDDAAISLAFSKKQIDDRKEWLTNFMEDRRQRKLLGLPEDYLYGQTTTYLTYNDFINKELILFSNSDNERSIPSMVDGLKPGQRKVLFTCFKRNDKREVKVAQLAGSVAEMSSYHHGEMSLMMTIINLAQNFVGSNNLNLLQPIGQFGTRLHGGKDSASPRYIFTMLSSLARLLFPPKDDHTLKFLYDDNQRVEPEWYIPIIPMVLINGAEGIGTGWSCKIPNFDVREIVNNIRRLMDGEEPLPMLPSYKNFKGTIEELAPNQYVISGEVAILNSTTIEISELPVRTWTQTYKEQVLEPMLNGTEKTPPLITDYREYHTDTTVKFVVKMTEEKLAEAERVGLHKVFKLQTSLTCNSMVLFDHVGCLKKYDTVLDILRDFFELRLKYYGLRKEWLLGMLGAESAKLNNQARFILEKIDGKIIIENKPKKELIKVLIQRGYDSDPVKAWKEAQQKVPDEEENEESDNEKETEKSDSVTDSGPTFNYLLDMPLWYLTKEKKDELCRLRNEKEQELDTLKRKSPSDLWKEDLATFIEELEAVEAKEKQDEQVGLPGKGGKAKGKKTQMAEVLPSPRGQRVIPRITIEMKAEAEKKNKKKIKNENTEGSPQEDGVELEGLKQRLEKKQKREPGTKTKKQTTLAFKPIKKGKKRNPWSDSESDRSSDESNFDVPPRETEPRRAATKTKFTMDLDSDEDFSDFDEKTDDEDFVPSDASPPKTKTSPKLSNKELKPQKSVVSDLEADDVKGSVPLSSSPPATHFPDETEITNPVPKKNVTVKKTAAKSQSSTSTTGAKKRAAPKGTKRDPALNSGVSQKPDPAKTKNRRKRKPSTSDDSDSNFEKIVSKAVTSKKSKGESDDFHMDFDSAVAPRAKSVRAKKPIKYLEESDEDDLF

[8] = molecular target: DNA topoisomerase 2-alpha (Homo sapiens) (UniProt P11388); experiment: Inhibition of recombinant human topoisomerase-2alpha assessed as decrease in relaxation/nicking of kinetoplast DNA using kDNA as substrate after 15 mins by ethidium bromide staining based agarose gel electrophoresis analysis; details: dose microM 30-100, time 15.0 min
MCF7 [9] = experiment: Antiproliferative activity against human MCF7 cells assessed as cell killing at 30 uM after 72 hrs by MTT assay; type: functional
MCF7 [10] = experiment: Modulation of DNA repair related gene expression in human MCF7 cells at 40 uM after 24 hrs by cDNA microarray analysis; type: functional, cell-based
[11] = molecular target: T1, DNA topoisomerase 1 (Homo sapiens); experiment: Inhibition of recombinant human topoisomerase 1 assessed as decrease in relaxation/nicking of supercoiled DNA using supercoiled DNA as substrate at 3 uM after 1 hr by ethidium bromide staining based agarose gel electrophoresis analysis
MCF7 [12] = experiment: Inhibition of colony formation in human MCF7 cells at 10 to 40 uM of compound exposure followed by compound washout and subsequent incubation for 3 weeks by crystal violet staining based assay; type: functional, cell-based; details: dose microM 10-40
MCF7 [13] = experiment: Induction of apoptosis in human MCF7 cells assessed as increase in cleaved caspase-9 protein expression at 20 to 40 uM incubated for 72 hrs by Western blot analysis; type: functional, cell-based; details: dose microM 20-40, time 72.0 hrs
MCF7 [14] = experiment: Induction of apoptosis in human MCF7 cells assessed as increase in cleaved PARP protein expression at 20 to 40 uM incubated for 72 hrs by Western blot analysis; type: functional, cell-based; details: dose microM 20-40, time 72.0 hrs
MCF7 [15] = experiment: Induction of apoptosis in human MCF7 cells at 20 to 40 uM by Annexin V-FITC/propidium iodide staining-based flow cytometric analysis; type: functional, cell-based; details: dose microM 20-40, time hrs 24-72, TDE = time-dependent effect
[16] = Cytotoxicity against human MCF-10A cells assessed as cell viability at 30 uM after 72 hrs by MTT assay; type: cell-based; details: read-out: Activity
MCF7 [17] = experiment: Induction of apoptosis in human MCF7 cells assessed as increase in cleaved caspase-7 protein expression at 20 to 40 uM incubated for 72 hrs by Western blot analysis; type: functional, cell-based; details: dose microM 20-40, time 72.0 hrs
[18] = molecular target: T1, DNA topoisomerase 1 (Homo sapiens); experiment: Inhibition of topoisomerase 1 in human MCF7 cells nuclear extract assessed as decrease in relaxation/nicking of supercoiled DNA using supercoiled DNA as substrate at 40 uM after 1 hr by ethidium bromide staining based agarose gel electrophoresis analysis; type: subcellular; details: Nucleus
[19] = molecular target: DNA topoisomerase 2-alpha (Homo sapiens) (UniProt P11388); experiment: Inhibition of recombinant human topoisomerase-2alpha assessed as decrease in relaxation/nicking of kinetoplast DNA using kDNA as substrate at 30 uM after 15 mins by ethidium bromide staining based agarose gel electrophoresis analysis
[20] = molecular target: DNA topoisomerase 2-alpha (Homo sapiens) (UniProt P11388); experiment: Inhibition of recombinant human topoisomerase-2alpha assessed as decrease in relaxation/nicking of kinetoplast DNA using kDNA as substrate at 100 uM after 15 mins by ethidium bromide staining based agarose gel electrophoresis analysis

IC50 (MDA-MB-231) [µM]	IC50 (MCF7 [1]) [µM]	IC50 (A549) [µM]	IC50 (KB) [µM]	Structure (SMILES)	IC50 [2] [µM]	other results
9	15.3	5.6	6.7	C=C(C)[C@@H]1CC[C@]2(C(=O)O)CC[C@]3(C)[C@H](CC[C@@H]4[C@@]5(C)C[C@@H](F)[C@H](O)C(C)(C)[C@@H]5CC[C@]43C)[C@@H]12	6.7	–
> 40	> 40	> 40	> 40	C=C(C)[C@@H]1CC[C@]2(C(=O)OCc3ccc(Cl)cc3)CC[C@]3(C)[C@H](CC[C@@H]4[C@@]5(C)CCC(=O)C(C)(C)[C@@H]5CC[C@]43C)[C@@H]12	> 40	–
11	9.2	6.1	6.5	C=C(C)[C@@H]1CC[C@]2(C(=O)O)CC[C@]3(C)[C@H](CC[C@@H]4[C@@]5(C)CC(F)[C@H](O)C(C)(C)[C@@H]5CC[C@]43C)[C@@H]12 (mixture of isomers)	7	Activity (MCF7 [3]): Active; inhibition [4]: Active; Activity (MCF7 [5]): Dose-dependent effect; inhibition [6]: Dose-dependent effect; Activity (MCF-10A): Non-Toxic; inhibition [7]: Active; inhibition [8]: Dose-dependent effect; Activity (MCF7 [9]): >80%; Activity (MCF7 [10]): Active; inhibition [11]: Active; inhibition (MCF7 [12]): Active; Activity (MCF7 [13]): Active; Activity (MCF7 [14]): Active; Activity (MCF7 [15]): Tde; viability at 72 h, 30 µM [16]: 80%; Activity (MCF7 [17]): Active; inhibition [18]: Active; inhibition [19]: Active
–	–	–	–	CC(=O)O[C@H]1C(=O)[C@@]2(C)[C@H]([C@H](OC(=O)c3ccccc3)[C@]3(O)C[C@H](OC(=O)[C@H](O)[C@@H](NC(=O)c4ccccc4)c4ccccc4)C(C)=C1C3(C)C)[C@]1(OC(C)=O)CO[C@@H]1C[C@@H]2O [PACLITAXEL]	2.9	–
> 40	> 40	> 40	> 40	C=C(C)[C@@H]1CC[C@]2(C(=O)OCc3ccc(Cl)cc3)CC[C@]3(C)[C@H](CC[C@@H]4[C@@]5(C)C[C@H](F)C(=O)C(C)(C)[C@@H]5CC[C@]43C)[C@@H]12	> 40	–
> 10	> 10	> 10	> 10	C=C(C)[C@@H]1CC[C@]2(C(=O)O)CC[C@]3(C)[C@H](CC[C@@H]4[C@@]5(C)CC(F)[C@H](OC(=O)CC(C)(C)C(=O)O)C(C)(C)[C@@H]5CC[C@]43C)[C@@H]12 (stereo not given in full)	> 10	–
–	–	–	–	COc1cc([C@@H]2c3cc4c(cc3[C@@H](O[C@@H]3O[C@@H]5CO[C@@H](C)O[C@H]5[C@H](O)[C@H]3O)[C@H]3COC(=O)[C@H]23)OCO4)cc(OC)c1O	–	inhibition [20]: Active
> 40	> 40	> 40	> 40	C=C(C)[C@@H]1CC[C@]2(C(=O)OCc3ccc(Cl)cc3)CC[C@]3(C)[C@H](CC[C@@H]4[C@@]5(C)CC[C@@](O)(C(F)(F)F)C(C)(C)[C@@H]5CC[C@]43C)[C@@H]12	> 40	–

Source: ChEMBL document CHEMBL4665654, “Design, synthesis and evaluation of antiproliferative activity of fluorinated betulinic acid” (Bioorg Med Chem, 2019)
